Laboratory results taken from ChEMBL document CHEMBL1201862, “PubChem BioAssay data set” (2004).
Several values for one entry are separate records, joined by “and”; a condition that tells them apart may be missing. Equal values may be shown once.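 Dose response: 5 concentrations. Exposure: 48 h. Format: 96-well plates. Endpoint: linear interpolation; highest concentration if not reached. At the GI50, growth is halved.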 Activity calls are given as the source filed them. No stated cut-off is given here; in the data, active = GI50 up to about 1.1 µM and inactive = higher.

Assays:
Experiment in all cases: NCI anticancer screen, dose series, 48 h
786-0 = tested on: 786-0
HT-29 = tested on: HT-29
K562 = tested on: K562
A498 = tested on: A498
DU-145 = tested on: DU-145
SN12C = tested on: SN12C
SNB-75 = tested on: SNB-75
CAKI-1 = tested on: CAKI-1
SK-OV-3 = tested on: SK-OV-3
HCC 2998 = tested on: HCC 2998
BT-549 = tested on: BT-549
MDA-MB-231 = tested on: MDA-MB-231
Hs-578T = tested on: Hs-578T
HCT-116 = tested on: HCT-116
OVCAR-5 = tested on: OVCAR-5
U-251 = tested on: U-251
LOX IMVI = tested on: LOX IMVI
MOLT-4 = tested on: MOLT-4
SNB-19 = tested on: SNB-19
OVCAR-4 = tested on: OVCAR-4
NCI/ADR-RES = tested on: NCI/ADR-RES
PC-3 = tested on: PC-3
MDA-MB-435 = tested on: MDA-MB-435
RPMI-8226 = tested on: RPMI-8226
ACHN = tested on: ACHN
HL-60 = tested on: HL-60
OVCAR-8 = tested on: OVCAR-8
SK-MEL-5 = tested on: SK-MEL-5
Malme-3M = tested on: Malme-3M
UACC-257 = tested on: UACC-257
T47D = tested on: T47D
KM12 = tested on: KM12
SR = tested on: SR
IGROV-1 = tested on: IGROV-1
NCI-H226 = tested on: NCI-H226
MDA-N = tested on: MDA-N
SF-268 = tested on: SF-268
MCF7 = tested on: MCF7
HCT-15 = tested on: HCT-15
SK-MEL-2 = tested on: SK-MEL-2
NCI-H522 = tested on: NCI-H522
SK-MEL-28 = tested on: SK-MEL-28
CCRF-CEM = tested on: CCRF-CEM
SF-539 = tested on: SF-539
RXF 393 = tested on: RXF 393
HOP-92 = tested on: HOP-92
UACC-62 = tested on: UACC-62
COLO 205 = tested on: COLO 205
TK-10 = tested on: TK-10
UO-31 = tested on: UO-31
SW-620 = tested on: SW-620
SF-295 = tested on: SF-295
HOP-62 = tested on: HOP-62
A549 = tested on: A549
OVCAR-3 = tested on: OVCAR-3
NCI-H460 = tested on: NCI-H460
NCI-H23 = tested on: NCI-H23
EKVX = tested on: EKVX
M14 = tested on: M14

## O=C1C=CC(=O)C(CNc2ccc(C(=O)OCc3ccccc3)cc2)=C1
786-0
  GI50: 3.33 µM (inactive)
HT-29
  GI50: 15.2 µM (inactive)
K562
  GI50: 2.62 µM (inactive)
A498
  GI50: 11.2 µM (inactive)
DU-145
  GI50: 12.2 µM (inactive)
SN12C
  GI50: 6.18 µM (inactive)
SNB-75
  GI50: 5.25 µM (inactive)
CAKI-1
  GI50: 1.38 µM (inactive)
SK-OV-3
  GI50: 12.6 µM (inactive)
HCC 2998
  GI50: 16 µM (inactive)
BT-549
  GI50: 2.56 µM (inactive)
MDA-MB-231
  GI50: 7.82 µM (inactive)
Hs-578T
  GI50: 6.12 µM (inactive)
HCT-116
  GI50: 5.3 µM (inactive)
OVCAR-5
  GI50: 15.6 µM (inactive)
U-251
  GI50: 6.24 µM (inactive)
LOX IMVI
  GI50: 4.14 µM (inactive)
MOLT-4
  GI50: 2 µM (inactive)
SNB-19
  GI50: 13.4 µM (inactive)
OVCAR-4
  GI50: 3.81 µM (inactive)
NCI/ADR-RES
  GI50: 4 µM (inactive)
PC-3
  GI50: 3.36 µM (inactive)
MDA-MB-435
  GI50: 5.06 µM (inactive)
RPMI-8226
  GI50: 1.47 µM (inactive)
ACHN
  GI50: 3.66 µM (inactive)
HL-60
  GI50: 1.08 µM (active)
OVCAR-8
  GI50: 3.98 µM (inactive)
SK-MEL-5
  GI50: 3.19 µM (inactive)
Malme-3M
  GI50: 2.67 µM (inactive)
UACC-257
  GI50: 11.5 µM (inactive)
T47D
  GI50: 1.77 µM (inactive)
KM12
  GI50: 9.35 µM (inactive)
SR
  GI50: 1.29 µM (inactive)
IGROV-1
  GI50: 3.27 µM (inactive)
NCI-H226
  GI50: 12.3 µM (inactive)
MDA-N
  GI50: 6.85 µM (inactive)
SF-268
  GI50: 6.4 µM (inactive)
MCF7
  GI50: 4.57 µM (inactive)
HCT-15
  GI50: 2.59 µM
SK-MEL-2
  GI50: 14.9 µM (inactive)
NCI-H522
  GI50: 1.39 µM (inactive)
SK-MEL-28
  GI50: 5.11 µM (inactive)
CCRF-CEM
  GI50: 0.661 µM (active)
SF-539
  GI50: 2.72 µM (inactive)
RXF 393
  GI50: 2.68 µM (inactive)
HOP-92
  GI50: 1.76 µM (inactive)
UACC-62
  GI50: 8.97 µM (inactive)
COLO 205
  GI50: 1.86 µM (inactive)
TK-10
  GI50: 4.62 µM (inactive)
UO-31
  GI50: 2.29 µM (inactive)
SW-620
  GI50: 4.99 µM (inactive)
SF-295
  GI50: 17.7 µM (inactive)
HOP-62
  GI50: 17.3 µM (inactive)
A549
  GI50: 14.5 µM (inactive)
OVCAR-3
  GI50: 2.4 µM (inactive)
NCI-H460
  GI50: 16.9 µM (inactive)
NCI-H23
  GI50: 10.2 µM (inactive)
EKVX
  GI50: 10.4 µM (inactive)
M14
  GI50: 7.05 µM (inactive)

## CS[C@]12C(=O)C[C@@]3(C)[C@@H](CC[C@]3(O)C(=O)CO)[C@@H]1CCC1=CC(=O)CC[C@@]12C
786-0
  GI50: > 100 µM (inactive)
HT-29
  GI50: 88.5 µM (inactive)
K562
  GI50: 37.1 µM (inactive)
A498
  GI50: > 100 µM (inactive)
DU-145
  GI50: > 100 µM (inactive)
SN12C
  GI50: > 100 µM (inactive)
SNB-75
  GI50: > 100 µM (inactive)
CAKI-1
  GI50: > 100 µM (inactive)
SK-OV-3
  GI50: > 100 µM (inactive)
HCC 2998
  GI50: 26.9 µM (inactive)
BT-549
  GI50: 68.2 µM (inactive)
MDA-MB-231
  GI50: > 100 µM (inactive)
Hs-578T
  GI50: > 100 µM (inactive)
HCT-116
  GI50: > 100 µM (inactive)
OVCAR-5
  GI50: > 100 µM (inactive)
U-251
  GI50: > 100 µM (inactive)
LOX IMVI
  GI50: > 100 µM (inactive)
MOLT-4
  GI50: 49.8 µM (inactive)
SNB-19
  GI50: > 100 µM (inactive)
OVCAR-4
  GI50: > 100 µM (inactive)
NCI/ADR-RES
  GI50: > 100 µM (inactive)
PC-3
  GI50: 55 µM (inactive)
MDA-MB-435
  GI50: 30.1 µM (inactive)
RPMI-8226
  GI50: 30.1 µM (inactive)
ACHN
  GI50: > 100 µM (inactive)
HL-60
  GI50: 35.3 µM (inactive)
OVCAR-8
  GI50: > 100 µM (inactive)
SK-MEL-5
  GI50: > 100 µM (inactive)
Malme-3M
  GI50: > 100 µM (inactive)
UACC-257
  GI50: > 100 µM (inactive)
T47D
  GI50: > 100 µM (inactive)
KM12
  GI50: > 100 µM (inactive)
SR
  GI50: 35 µM (inactive)
IGROV-1
  GI50: > 100 µM (inactive)
NCI-H226
  GI50: > 100 µM (inactive)
MDA-N
  GI50: 26.6 µM (inactive)
SF-268
  GI50: > 100 µM (inactive)
MCF7
  GI50: > 100 µM (inactive)
HCT-15
  GI50: 60.7 µM
SK-MEL-2
  GI50: > 100 µM (inactive)
NCI-H522
  GI50: 47.9 µM (inactive)
SK-MEL-28
  GI50: > 100 µM (inactive)
CCRF-CEM
  GI50: 42.8 µM (inactive)
SF-539
  GI50: > 100 µM (inactive)
RXF 393
  GI50: > 100 µM (inactive)
HOP-92
  GI50: > 100 µM (inactive)
UACC-62
  GI50: > 100 µM (inactive)
COLO 205
  GI50: > 100 µM (inactive)
TK-10
  GI50: > 100 µM (inactive)
UO-31
  GI50: 95.5 µM (inactive)
SW-620
  GI50: 68.5 µM (inactive)
SF-295
  GI50: > 100 µM (inactive)
HOP-62
  GI50: > 100 µM (inactive)
A549
  GI50: > 100 µM (inactive)
OVCAR-3
  GI50: > 100 µM (inactive)
NCI-H460
  GI50: > 100 µM (inactive)
NCI-H23
  GI50: > 100 µM (inactive)
EKVX
  GI50: > 100 µM (inactive)
M14
  GI50: 46 µM (inactive)

## NC(Cc1ccc(N(CCCl)CCCl)cc1)C(=O)NC(CCC(=O)O)C(=O)O (configuration not stated)
786-0
  GI50: > 100 µM (inactive)
HT-29
  GI50: > 100 µM (inactive)
K562
  GI50: > 100 µM (inactive)
A498
  GI50: > 100 µM (inactive)
DU-145
  GI50: > 100 µM (inactive)
SN12C
  GI50: > 100 µM (inactive)
SNB-75
  GI50: > 100 µM (inactive)
CAKI-1
  GI50: > 100 µM (inactive)
SK-OV-3
  GI50: > 100 µM (inactive)
HCC 2998
  GI50: > 100 µM (inactive)
BT-549
  GI50: > 100 µM (inactive)
MDA-MB-231
  GI50: > 100 µM (inactive)
Hs-578T
  GI50: > 100 µM (inactive)
HCT-116
  GI50: > 100 µM (inactive)
OVCAR-5
  GI50: > 100 µM (inactive)
U-251
  GI50: > 100 µM (inactive)
LOX IMVI
  GI50: > 100 µM (inactive)
MOLT-4
  GI50: > 100 µM (inactive)
SNB-19
  GI50: > 100 µM (inactive)
OVCAR-4
  GI50: > 100 µM (inactive)
NCI/ADR-RES
  GI50: > 100 µM (inactive)
PC-3
  GI50: > 100 µM (inactive)
MDA-MB-435
  GI50: > 100 µM (inactive)
RPMI-8226
  GI50: > 100 µM (inactive)
ACHN
  GI50: > 100 µM (inactive)
HL-60
  GI50: > 100 µM (inactive)
OVCAR-8
  GI50: > 100 µM (inactive)
SK-MEL-5
  GI50: > 100 µM (inactive)
Malme-3M
  GI50: > 100 µM (inactive)
UACC-257
  GI50: > 100 µM (inactive)
T47D
  GI50: > 100 µM (inactive)
KM12
  GI50: > 100 µM (inactive)
SR
  GI50: 38 µM (inactive) and 60.4 µM (inactive)
IGROV-1
  GI50: > 100 µM (inactive)
NCI-H226
  GI50: > 100 µM (inactive)
MDA-N
  GI50: > 100 µM (inactive)
SF-268
  GI50: > 100 µM (inactive)
MCF7
  GI50: > 100 µM (inactive)
HCT-15
  GI50: > 100 µM
SK-MEL-2
  GI50: > 100 µM (inactive)
NCI-H522
  GI50: > 100 µM (inactive)
SK-MEL-28
  GI50: > 100 µM (inactive)
CCRF-CEM
  GI50: > 100 µM (inactive)
SF-539
  GI50: > 100 µM (inactive)
RXF 393
  GI50: > 100 µM (inactive)
HOP-92
  GI50: > 100 µM (inactive)
UACC-62
  GI50: > 100 µM (inactive)
COLO 205
  GI50: > 100 µM (inactive)
TK-10
  GI50: > 100 µM (inactive)
UO-31
  GI50: > 100 µM (inactive)
SW-620
  GI50: > 100 µM (inactive)
SF-295
  GI50: > 100 µM (inactive)
HOP-62
  GI50: > 100 µM (inactive)
A549
  GI50: > 100 µM (inactive)
OVCAR-3
  GI50: > 100 µM (inactive)
NCI-H460
  GI50: > 100 µM (inactive)
NCI-H23
  GI50: > 100 µM (inactive)
EKVX
  GI50: > 100 µM (inactive)
M14
  GI50: > 100 µM (inactive)
